This passage reports IC50 results from patent US20100305113A1, “Substituted Imidazopyridazines as Lipid Kinase Inhibitors” (priority 2007, published 2010).

What all share (assay type): biochemical
Holding throughout (conditions): Enzymatic Data

Experiment [1] deals with T1, PI3K beta (Homo sapiens, UniProt P42338).
T1 construct: for the full-length p110-b subunit are generated and fused by overlapping PCR; p85(iSH2) fusion partner (same polypeptide; see partner chain) (N); Gly linker (N); His tag (C); made in house; host or cells: baculovirus; Tn5 (Trichoplusia ni) or TiniPro insect cells
T1 sequence (P42338 with tags, fused parts or gaps limits assumed): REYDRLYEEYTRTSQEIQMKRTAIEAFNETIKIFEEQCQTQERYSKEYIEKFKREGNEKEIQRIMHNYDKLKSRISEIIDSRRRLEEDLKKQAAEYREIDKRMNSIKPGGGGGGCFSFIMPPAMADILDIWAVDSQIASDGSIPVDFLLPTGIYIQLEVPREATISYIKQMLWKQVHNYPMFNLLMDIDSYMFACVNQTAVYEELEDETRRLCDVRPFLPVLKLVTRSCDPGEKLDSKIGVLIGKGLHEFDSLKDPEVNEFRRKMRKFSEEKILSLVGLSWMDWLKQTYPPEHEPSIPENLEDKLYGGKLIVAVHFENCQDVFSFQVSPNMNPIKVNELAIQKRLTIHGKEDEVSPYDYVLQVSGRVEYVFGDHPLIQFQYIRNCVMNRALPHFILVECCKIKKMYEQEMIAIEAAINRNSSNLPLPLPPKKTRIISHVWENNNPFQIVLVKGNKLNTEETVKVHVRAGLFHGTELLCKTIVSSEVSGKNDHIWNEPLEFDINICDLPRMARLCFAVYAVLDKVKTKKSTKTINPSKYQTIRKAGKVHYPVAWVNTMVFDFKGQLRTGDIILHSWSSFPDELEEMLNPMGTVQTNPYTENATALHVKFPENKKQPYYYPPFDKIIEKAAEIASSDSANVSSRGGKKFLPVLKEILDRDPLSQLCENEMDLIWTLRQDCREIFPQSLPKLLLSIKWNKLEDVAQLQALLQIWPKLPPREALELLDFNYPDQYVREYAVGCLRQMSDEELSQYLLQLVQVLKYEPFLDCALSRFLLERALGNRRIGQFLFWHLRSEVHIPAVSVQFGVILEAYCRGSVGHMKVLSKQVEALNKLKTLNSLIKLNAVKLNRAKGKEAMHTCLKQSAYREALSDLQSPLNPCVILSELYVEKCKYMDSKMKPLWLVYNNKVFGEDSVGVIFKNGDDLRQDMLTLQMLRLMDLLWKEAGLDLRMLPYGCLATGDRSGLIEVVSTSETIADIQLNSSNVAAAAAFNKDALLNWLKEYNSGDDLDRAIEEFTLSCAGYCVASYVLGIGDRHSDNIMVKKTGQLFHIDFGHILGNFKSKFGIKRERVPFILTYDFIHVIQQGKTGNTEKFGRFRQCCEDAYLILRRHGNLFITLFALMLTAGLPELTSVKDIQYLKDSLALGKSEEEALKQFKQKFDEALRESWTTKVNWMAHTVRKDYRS
Put plainly: PI3K beta enzymatic assay (Kinase-Glo luminescence). How it is done:
(§1) In a more preferred assay, the kinase reaction is performed in a final volume of 10 μL per well of a low volume non binding CORNING, 384 well black plate (Cat. No. #3676). The final concentrations of ATP and phosphatidyl inositol (PI) in the assay are 1 μM and 10 μg/mL respectively. The reaction is started by the addition of ATP.
(§2) The components of the assay are added per well as follows:
(§3) 50 nL test compounds in 90% DMSO per well, in columns 1-20, 8 concentrations (⅓ and 1/3.33 serial dilution step) in single. • Low control: 50 nL of 90% DMSO in half the wells of columns 23-24 (0.45% in final). • High control: 50 nL of reference compound (e.g. compound of Example 7 in WO 2006/122806, incorporated by reference herein that regard) in the other half of columns 23-24 (2.5 μM in final). • Standard: 50 nL of reference compound as just mentioned diluted as the test compounds in columns 21-22 • 20 mL ‘buffer’ are prepared per assay: • 200 μL of 1M TRIS HCl pH7.5 (10 mM in final) • 60 μL of 1M MgCl2 (3 mM in final) • 500 μL of 2M NaCl (50 mM in final) • 100 μL of 10% CHAPS (0.05% in final) • 200 μL of 100 mM DTT (1 mM in final) • 18.94 mL of nanopure water • 10 mL ‘PI’ are prepared per assay: • 200 μL of 1 mg/ml L-alpha-Phosphatidylinositol (Liver Bovine, Avanti Polar Lipids Cat. No. 840042C MW=909.12) prepared in 3% OctylGlucoside ([…]) • 9.8 mL of ‘buffer’ • 10 mL ‘ATP’ are prepared per assay: • 6.7 μL of 3 mM stock of ATP giving a final concentration of 1 μM per well • 10 mL of ‘buffer’ • 2.5 mL of each PI3K construct are prepared per assay in ‘PI’ with the following final concentration: • 10 nM PI3K alfa BV-1075 • 25 nM beta BV-949 • 10 nM delta BV-1060 • 150 nM gamma BV-950 • 5 μL of ‘PI/PI3K’ are added per well. • 5 μl ‘ATP’ are added per well to start the reaction. • The plates are then incubated at room temperature for 60 minutes (alfa, beta, delta) or 120 minutes (gamma). • The reaction is terminated by the addition of 10 μL Kinase-Glo (Promega Cat. No. #6714). • The assay plates are read after 10 minutes in Synergy 2 reader (BioTek, Vermont USA) with an integration time of 100 milliseconds and sensitivity set to 191. • Output: The High control is around 60′000 counts and the Low control is 30′000 or lower • This luminescence assay gives a useful Z′ ratio between 0.4 and 0.7 The Z′ value is a universal measurement of the robustness of an assay. A Z′ between 0.5 and 1.0 is considered an excellent assay.
PI3Kβ BV-949 p85(iSH2)-Gly linker-p110b (Full-Length)-C-Term His Tag
(§4) IC50 is determined by a four parameter curve fitting routine that comes aloneg with “excel fit”. A 4 Parameter logistic equation is used to calculate IC50 values (IDBS XLfit) of the percentage inhibition of each compound at 8 concentrations (usually 10, 3.0, 1.0, 0.3, 0.1, 0.030, 0.010 and 0.003 μM). Alternatively, IC50 values are calculated using idbsXLfit model 204, which is a 4 parameter logistic model.

Experiment [2] deals with T2, PI3K delta (Homo sapiens, UniProt O00329).
T2 construct: for the full-length p110-d subunit are generated and fused by overlapping PCR; p85(iSH2) fusion partner (same polypeptide; see partner chain) (N); Gly linker (N); His tag (C); made in house; host or cells: baculovirus; Tn5 (Trichoplusia ni) or TiniPro insect cells
T2 sequence (O00329 with tags, fused parts or gaps limits assumed): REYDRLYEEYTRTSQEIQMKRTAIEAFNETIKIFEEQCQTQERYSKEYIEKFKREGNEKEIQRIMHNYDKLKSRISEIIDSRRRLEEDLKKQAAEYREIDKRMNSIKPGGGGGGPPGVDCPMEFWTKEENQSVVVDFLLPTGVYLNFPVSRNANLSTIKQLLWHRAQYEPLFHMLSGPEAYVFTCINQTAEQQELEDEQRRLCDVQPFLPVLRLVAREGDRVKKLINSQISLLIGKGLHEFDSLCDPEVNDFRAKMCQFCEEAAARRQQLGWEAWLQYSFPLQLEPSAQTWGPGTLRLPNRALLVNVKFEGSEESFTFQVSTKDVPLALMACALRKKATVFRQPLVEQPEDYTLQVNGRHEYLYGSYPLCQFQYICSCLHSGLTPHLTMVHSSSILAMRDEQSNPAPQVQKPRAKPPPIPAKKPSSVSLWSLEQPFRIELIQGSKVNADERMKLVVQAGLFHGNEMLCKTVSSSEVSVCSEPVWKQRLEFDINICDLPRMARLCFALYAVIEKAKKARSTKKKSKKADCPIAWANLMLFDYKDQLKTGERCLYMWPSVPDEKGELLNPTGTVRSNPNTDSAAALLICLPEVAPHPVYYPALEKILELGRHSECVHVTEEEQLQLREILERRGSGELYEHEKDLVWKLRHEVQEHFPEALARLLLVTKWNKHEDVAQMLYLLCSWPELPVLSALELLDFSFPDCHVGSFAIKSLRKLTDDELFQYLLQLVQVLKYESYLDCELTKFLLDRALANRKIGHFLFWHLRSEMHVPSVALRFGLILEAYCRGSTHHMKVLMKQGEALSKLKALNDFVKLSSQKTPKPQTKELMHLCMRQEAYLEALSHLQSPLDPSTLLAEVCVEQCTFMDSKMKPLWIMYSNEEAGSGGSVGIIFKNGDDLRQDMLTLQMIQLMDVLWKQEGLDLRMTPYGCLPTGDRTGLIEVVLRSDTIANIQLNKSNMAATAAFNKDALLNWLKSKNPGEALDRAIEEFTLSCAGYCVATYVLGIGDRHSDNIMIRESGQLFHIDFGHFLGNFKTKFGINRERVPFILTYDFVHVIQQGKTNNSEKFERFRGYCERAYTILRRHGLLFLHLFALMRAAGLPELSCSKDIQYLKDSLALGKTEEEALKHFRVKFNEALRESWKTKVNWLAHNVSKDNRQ
Put plainly: PI3K delta enzymatic assay (Kinase-Glo luminescence). How it is done: as §1, §2, §3
PI3Kδ BV-1060 p85(iSH2)-Gly Linker-p110d (Full-Length)-C-term His Tact
as §4

Experiment [3] addresses T3, PI3K alfa (Homo sapiens, UniProt P42336).
T3 construct: p85(iSH2) fusion partner (same polypeptide; see partner chain) (N); 12x Gly linker (N); His tag (C); made in house; host or cells: baculovirus; Tn5 (Trichoplusia ni) or TiniPro insect cells
Put plainly: PI3K alfa enzymatic assay (Kinase-Glo luminescence). How it is done:
as §1, §2, §3, §4

Experiment [4] deals with T4, PI3K gamma (Homo sapiens, UniProt P48736).
T4 construct: His tag (C); made in house; host or cells: construct from Roger Williams lab (MRC LMB); baculovirus (pVL1393); Tn5 (Trichoplusia ni) or TiniPro insect cells
T4 sequence (P48736 144-1102 limits assumed): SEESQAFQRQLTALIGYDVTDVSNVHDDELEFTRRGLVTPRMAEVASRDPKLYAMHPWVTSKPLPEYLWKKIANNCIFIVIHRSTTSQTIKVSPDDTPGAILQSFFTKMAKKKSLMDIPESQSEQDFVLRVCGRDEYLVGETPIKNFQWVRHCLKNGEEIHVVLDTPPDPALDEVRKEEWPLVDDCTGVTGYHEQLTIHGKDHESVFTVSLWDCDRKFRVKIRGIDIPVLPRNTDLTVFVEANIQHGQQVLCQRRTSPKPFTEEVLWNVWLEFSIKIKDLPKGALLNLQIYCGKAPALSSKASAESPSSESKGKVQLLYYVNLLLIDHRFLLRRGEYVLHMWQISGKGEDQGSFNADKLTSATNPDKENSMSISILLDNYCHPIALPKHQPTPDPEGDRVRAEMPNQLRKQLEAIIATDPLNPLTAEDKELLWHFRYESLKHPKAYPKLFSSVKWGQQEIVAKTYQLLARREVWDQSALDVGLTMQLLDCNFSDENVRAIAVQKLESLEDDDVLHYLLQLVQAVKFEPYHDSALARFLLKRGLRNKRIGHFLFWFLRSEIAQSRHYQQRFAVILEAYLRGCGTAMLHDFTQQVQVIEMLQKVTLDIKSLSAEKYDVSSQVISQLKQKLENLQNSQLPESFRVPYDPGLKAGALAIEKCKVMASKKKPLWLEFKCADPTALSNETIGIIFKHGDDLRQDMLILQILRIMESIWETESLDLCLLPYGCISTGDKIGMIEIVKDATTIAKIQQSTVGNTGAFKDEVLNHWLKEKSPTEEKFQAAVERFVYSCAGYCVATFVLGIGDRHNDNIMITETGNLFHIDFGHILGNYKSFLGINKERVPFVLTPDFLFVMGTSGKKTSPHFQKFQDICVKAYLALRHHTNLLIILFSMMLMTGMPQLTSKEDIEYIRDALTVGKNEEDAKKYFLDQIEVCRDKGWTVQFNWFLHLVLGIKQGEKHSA
Put plainly: PI3K gamma enzymatic assay (Kinase-Glo luminescence). How it is done:
as §1, §2, §3, §4

T3 sequence (P42336 with tags, fused parts or gaps limits assumed): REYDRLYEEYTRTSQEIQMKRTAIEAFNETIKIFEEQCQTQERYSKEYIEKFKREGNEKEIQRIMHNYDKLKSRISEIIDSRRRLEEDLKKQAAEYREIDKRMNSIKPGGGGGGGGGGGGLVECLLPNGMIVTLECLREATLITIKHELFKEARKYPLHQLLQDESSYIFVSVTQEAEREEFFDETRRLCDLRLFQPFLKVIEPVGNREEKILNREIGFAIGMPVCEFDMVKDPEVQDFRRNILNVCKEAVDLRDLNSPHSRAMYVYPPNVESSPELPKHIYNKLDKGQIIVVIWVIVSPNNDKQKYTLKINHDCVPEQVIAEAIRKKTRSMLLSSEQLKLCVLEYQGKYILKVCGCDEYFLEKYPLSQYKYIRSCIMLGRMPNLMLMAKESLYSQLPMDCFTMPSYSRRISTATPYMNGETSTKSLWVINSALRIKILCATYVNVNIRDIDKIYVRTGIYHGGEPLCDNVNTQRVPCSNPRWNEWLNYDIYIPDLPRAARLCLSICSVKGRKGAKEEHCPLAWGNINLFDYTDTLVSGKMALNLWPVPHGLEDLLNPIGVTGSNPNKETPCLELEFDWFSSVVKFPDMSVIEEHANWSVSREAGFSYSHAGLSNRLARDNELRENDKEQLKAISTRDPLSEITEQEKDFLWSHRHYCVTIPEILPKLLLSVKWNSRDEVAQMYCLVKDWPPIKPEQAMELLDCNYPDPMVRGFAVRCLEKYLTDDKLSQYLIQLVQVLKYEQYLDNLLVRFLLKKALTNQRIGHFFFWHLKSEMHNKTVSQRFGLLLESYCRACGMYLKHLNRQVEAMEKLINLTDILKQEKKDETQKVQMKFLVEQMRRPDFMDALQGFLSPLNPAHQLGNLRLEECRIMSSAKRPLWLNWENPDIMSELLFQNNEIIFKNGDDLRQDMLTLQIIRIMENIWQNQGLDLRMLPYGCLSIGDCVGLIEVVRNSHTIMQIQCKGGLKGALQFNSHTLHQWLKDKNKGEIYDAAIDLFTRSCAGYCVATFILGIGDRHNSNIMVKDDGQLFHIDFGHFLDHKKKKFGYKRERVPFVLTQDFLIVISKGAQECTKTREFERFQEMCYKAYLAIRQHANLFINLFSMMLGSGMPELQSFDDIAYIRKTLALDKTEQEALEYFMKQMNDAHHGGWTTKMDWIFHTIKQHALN

Usually IC50 stands for the point on the concentration scale where inhibition reaches its midpoint. As for `COCCOCCOCCOc1ccc(-c2ccc3nc(C)c(-c4ccc(S(C)(=O)=O)cc4)n3n2)cc1OC` [Example 90, 3-(4-Methanesulfonyl-phenyl)-6-(3-methoxy-4-{2-[2-(2-methoxy-ethoxy)-ethoxy]-ethoxy}-phenyl)-2-methyl-imidazo[1,2-b]pyridazine], the IC50 in experiment [1] is greater than 9100 nM; in experiment [2], 1740 nM; in experiment [3], 2360 nM; in experiment [4], 3460 nM.

Regarding `Cc1nc2ccc(-c3ccc(OCC4(NC(=O)OCc5ccccc5)COC4)cc3)nn2c1-c1cnc(N)c(C(F)(F)F)c1` [Example 112, (3-{4-[3-(6-Amino-5-trifluoromethyl-pyridin-3-yl)-2-methyl-imidazo[1,2-b]pyridazin-6-yl]-phenoxymethyl}-oxetan-3-yl)-carbamic acid benzyl ester], the IC50 is greater than 9100 nM in experiment [1], 1820 nM in experiment [2], 821 nM in experiment [3] and greater than 9100 nM in experiment [4].

For `COCCOCCOCCOc1ccc(-c2ccc3nc(C)c(-c4cnc(N)c(C(F)(F)F)c4)n3n2)cc1OC` [Example 84, 5-[6-(3-Methoxy-4-{2-[2-(2-methoxy-ethoxy)-ethoxy]-ethoxy}-phenyl)-2-methyl-imidazo[1,2-b]pyridazin-3-yl]-3-trifluoromethyl-pyridin-2-ylamine], the concentration for half-maximal inhibition (IC50) in experiment [1] is greater than 9100 nM; in experiment [2], 174 nM; in experiment [3], 40 nM; in experiment [4] it was 65 nM.

Turning to `COc1ccc(-c2ccc3nc(C)c(-c4ccnc(-n5ccnc5)n4)n3n2)cc1OC` [Example 83, 6-(3,4-Dimethoxy-phenyl)-3-(2-imidazol-1-yl-pyrimidin-4-yl)-2-methyl-imidazo[1,2-b]pyridazine], the 50% inhibitory concentration (IC50) in experiment [1] is greater than 9100 nM; in experiment [2] it was 397 nM; in experiment [3], 276 nM; in experiment [4] it was 1160 nM.

In the case of `COc1ccc(-c2ccc3nc(C)c(-c4ccnc(NCC5CC5)n4)n3n2)cc1OC` [Example 87, Cyclopropylmethyl-{4-[6-(3,4-dimethoxy-phenyl)-2-methyl-imidazo[1,2-b]pyridazin-3-yl]-pyrimidin-2-yl}-amine], the IC50 is greater than 9100 nM in experiment [1], 357 nM in experiment [2], 296 nM in experiment [3] and 98 nM in experiment [4].

With `COc1cc(-c2ccc3nc(C)c(-c4cnc(N)c(C(F)(F)F)c4)n3n2)ccc1OCCN` [Example 24, 5-{6-[4-(2-Amino-ethoxy)-3-methoxy-phenyl]-2-methyl-imidazo[1,2-b]pyridazin-3-yl}-3-trifluoromethyl-pyridin-2-ylamine], the half-maximal inhibitory concentration (IC50) in experiment [1] is 51 nM; in experiment [2], 52 nM; in experiment [3], 39 nM; in experiment [4], 211 nM.

As for `COc1cc(-c2ccc3nc(C)c(-c4cnc(N)c(C(F)(F)F)c4)n3n2)ccc1OCCCNC(=O)C(C)C` [Example 82], the IC50 turned out to be 4010 nM in experiment [1], 164 nM in experiment [2], 19 nM in experiment [3] and 87 nM in experiment [4].

Take `COc1ccc(-c2ccc3nc(C)c(-c4ccnc(N(C)CCN(C)C)n4)n3n2)cc1OC` [Example 88, N-{4-[6-(3,4-Dimethoxy-phenyl)-2-methyl-imidazo[1,2-b]pyridazin-3-yl]-pyrimidin-2-yl}-N,N′,N′-trimethyl-ethane-1,2-diamine]: the IC50 in experiment [1] worked out at 3030 nM; in experiment [2] it was 41 nM; in experiment [3] it was 51 nM; in experiment [4], 98 nM.

For `COc1cc(-c2ccc3nc(C)c(-c4cnc(N)c(C(F)(F)F)c4)n3n2)ccc1OC1CCN(C(=O)OC(C)(C)C)CC1` [Example 92, 4-{4-[3-(6-Amino-5-trifluoromethyl-pyridin-3-yl)-2-methyl-imidazo[1,2-b]pyridazin-6-yl]-2-methoxy-phenoxy}-piperidine-1-carboxylic acid tert-butyl ester], the IC50 in experiment [1] is greater than 9100 nM; in experiment [2] it was greater than 9100 nM; in experiment [3], 1780 nM; in experiment [4], greater than 9100 nM.

As to `COc1ccc(-c2ccc3nc(C)c(-c4ccc(N5CCOCC5)nc4)n3n2)cc1OC` [Example 5], the IC50 in experiment [1] is 1570 nM; in experiment [2], 1090 nM; in experiment [3], 111 nM; in experiment [4] it was 613 nM.

On to `CCS(=O)(=O)c1ccc(-c2c(C)nc3ccc(-c4ccc(OCCOCCOCCOC)c(OC)c4)nn23)cc1` [Example 91, 3-(4-Ethanesulfonyl-phenyl)-6-(3-methoxy-4-{2-[2-(2-methoxy-ethoxy)-ethoxy]-ethoxy}-phenyl)-2-methyl-imidazo[1,2-b]pyridazine], for which the IC50 in experiment [1] was greater than 9100 nM; in experiment [2] it was 3400 nM; in experiment [3], 4100 nM; in experiment [4], greater than 9100 nM.

With `COc1cc(-c2ccc3nc(C)c(-c4cnc(N)c(C(F)(F)F)c4)n3n2)ccc1OCCCN1CCCC1=O` [Example 77], the IC50 in experiment [1] came to 3790 nM; in experiment [2], 281 nM; in experiment [3] it was 75 nM; in experiment [4], 1260 nM.

Take `COc1cc(-c2ccc3nc(C)c(-c4cnc(N)c(C(F)(F)F)c4)n3n2)ccc1OCCN(CC(=O)N(C)C)CC(=O)N(C)C` [Example 103, 2-[(2-{4-[3-(6-Amino-5-trifluoromethyl-pyridin-3-yl)-2-methyl-imidazol[1,2-b]pyridazin-6-yl]-2-methoxy-phenoxy}-ethyl)-dimethylcarbamoylmethyl-amino]-N,N-dimethyl-acetamide]: the IC50 in experiment [1] came out at 1830 nM; in experiment [2], 362 nM; in experiment [3], 15 nM; in experiment [4] it was 662 nM.

Consider `COc1cccc(NC(=O)NCCOc2ccc(-c3ccc4nc(C)c(-c5cnc(N)c(C(F)(F)F)c5)n4n3)cc2OC)c1` [Example 59], for which the IC50 is greater than 9100 nM in experiment [1], greater than 9100 nM in experiment [2], 371 nM in experiment [3] and 2640 nM in experiment [4].

Regarding `COc1cc(-c2ccc3nc(C)c(-c4cnc(N)c(C(F)(F)F)c4)n3n2)ccc1OCCNC(=O)c1cccc(C#N)c1` [Example 27], the IC50 in experiment [1] is greater than 9100 nM; in experiment [2], greater than 9100 nM; in experiment [3], 456 nM; in experiment [4], 2280 nM.

For the molecule `CCOc1ccc(-c2ccc3nc(C)c(-c4ccc(-c5ccc(C#N)nc5)nc4)n3n2)cc1OC` [Example 13, 5-[6-(4-Ethoxy-3-methoxy-phenyl)-2-methyl-imidazo[1,2-b]pyridazin-3-yl]-[2,3]bipyridinyl-6′-carbonitrile], the concentration for half-maximal inhibition (IC50) in experiment [1] is 4160 nM; in experiment [2], greater than 25000 nM; in experiment [3], 58 nM; in experiment [4], greater than 25000 nM.
